# Measurements from patent publication US6855829B2, “3-fluoro-2-oxindole modulators of KCNQ potassium channels and use thereof in treating migraine and mechanistically related disease” (Bristol-Myers Squibb Company, priority 2001, dated 2005).
# “Also recorded” adds a separate entry of the source. Where two headings read alike, the source gives them in different places.
# Assays:
# [1] = test system: cortical spreading depression; assay: Cortical spreading depression elicited by KCl application; type: in vivo; settings: rat, 0.1, 1.0, 5.0, 10.0 and 30.0 mg/kg i.v. vs vehicle (overall ANOVA p<0.001)
# Description: (§1) Male Long-Evans rats (Harlan, 250-400 g) were used in the experiments described in this example. Prior to testing, rats were allowed access to food and water ad libitum and were maintained on a 12:12 hours light/dark cycle. Rats were group housed in an Association for Assessment and Accreditation of Laboratory Animal Care (A.A.A.L.A.C.) accredited facility and cared for in strict compliance with all applicable regulations.
# Rats were anesthetized with urethane anesthesia (1.2 g/kg i.p.), implanted with a jugular vein catheter for drug injections, and placed in a stereotaxic frame. The skull was exposed and a small hole (approximately 2 mm by 3 mm) was drilled in the skull rostral to the lambdoid suture using a microdrill and steel burr creating a “well”. The dura was disrupted and a drop of mineral oil was placed in this well. Crystalline KCl was later applied to the well for 10 minutes to elicit spreading depression. Typically, this application produced a long-lasting series of spreading depressions.
# Two additional holes were placed in the skull unilaterally at 4 and 8 mm rostral to the application hole. Silver wire electrodes were placed in these latter holes and secured to the skull using acrylic cement. […]
# Differences between control and drug conditions were assessed using analyses of variance (ANOVA) and appropriate post-hoc analyses. […]
# [2] = target: human KCNQ5 (hKCNQ5) (Homo sapiens, UniProt Q9NR82); assay: Two-electrode voltage clamp, Xenopus oocyte-expressed hKCNQ5-mediated outward currents; type: cell-based; settings: Xenopus oocytes, n=3, single concentration (10 or 20 μM)
# Description: (§2) The ability of the compounds described herein to open KCNQ channels and increase whole-cell outward (K^+) KCNQ-mediated currents was assessed under voltage-clamp conditions by determining their ability to increase cloned […] KCNQ2 (mKCNQ2)-mediated, heteromultimeric murine KCNQ2/3 (mKCNQ2/3)-mediated, and heterologous human KCNQ5 (hKCNQ5)-mediated outward currents expressed in Xenopus oocytes. Oocytes were prepared and injected using standard techniques; each oocyte was injected with approximately 50 nl of mKCNQ2, or hKCNQ5 cRNA. In the case of mKCNQ2/3 heteromultimeric channel expression, equal amounts (25-50 nL) of each cRNA were co-injected.
# (§3) Following injection, oocytes were maintained at 17° C. in ND96 medium containing (in mM): NaCl, 90; KCl, 1.0; CaCl2, 1.0; MgCl2, 1.0; HEPES, 5.0; pH 7.5. Horse serum (5%) and penicillin/streptomycin (5%) were added to the incubation medium. Recording commenced 2-6 days following mRNA injection. […]
# (§4) Frog (Xenopus laevis) oocytes were impaled with electrodes (1-2 MΩ) and standard 2-electrode voltage clamp techniques were employed to record whole-cell membrane currents. […] Compounds were evaluated at a single concentration (10 or 20 μM), and the effect of the selected compounds of Formula I on KCNQ2 current was expressed as the percent of control current. […]
# [3] = target: murine KCNQ2 (mKCNQ2) (Mus musculus, UniProt Q9Z351); assay: Two-electrode voltage clamp, Xenopus oocyte expressed mKCNQ2-mediated outward currents; type: cell-based; settings: 10 μM, Xenopus oocytes
# Description: as §2, §3, §4
# [4] = test system: SSS-stimulated field responses recorded in the trigeminal nucleus caudalis; assay: SSS-stimulated trigeminal field response (in vivo model of migraine); design: species or system rat
# Description: as §1
# SSS stimulation and recording were performed in a manner consistent with previously published methods using cat (K. L. Hoskin et al., 1996, Brain, 119:101-108) and rat (M. J. Cumberbatch et al., 1998, Eur. J. Pharmacol., 362:43-46; and M. J. Cumberbatch et al., 1999, Br. J. Pharmacol., 126:1478-1486) animal models. Rats were anesthetized with 1.2 g/kg i.p. urethane (#U-2500, Sigma Chemical Company, St. Louis, Mo.) and given supplemental urethane as needed. In the case of intravenous (i.v.) drug administration (e.g., (+)-3-[5-Chloro-2-[(2,2,2-trifluoroethoxy)phenyl]-1,3-dihydro-3-fluoro-6-(trifluoromethyl)-2H-indol-2-one), the jugular veins of the rats were cannulated using sylastic tubing pre-filled with vehicle. […]
# Stimulated field responses were recorded in the trigeminal nucleus caudalis using Teflon coated stainless-steel microelectrodes (5 MΩ impedance, Frederick Haer, Brunswick, Me.) and amplified and filtered (0.1 Hz-10 kHz) using a differential amplifier (#IsoDAM8, World Precision Instruments, Sarasota, Fla.). […]
# Three baseline measures (i.e., 100% of control), each consisting of 100 evoked trigeminal field potentials, were sampled prior to drug injection. […] Following injection of test substances, data were sampled for 1 hour, averaged into 5 minute bins (90 evoked potentials) and expressed as a percent change from average baseline values for the purposes of statistical analysis. Data were analyzed using repeated measures analyses of variance comparing vehicle and drug effects. […]
# [5] = test system: SSS-stimulated trigeminal activity; settings: cited from earlier work
# Sequence of human KCNQ5 (hKCNQ5) (Q9NR82 whole entry): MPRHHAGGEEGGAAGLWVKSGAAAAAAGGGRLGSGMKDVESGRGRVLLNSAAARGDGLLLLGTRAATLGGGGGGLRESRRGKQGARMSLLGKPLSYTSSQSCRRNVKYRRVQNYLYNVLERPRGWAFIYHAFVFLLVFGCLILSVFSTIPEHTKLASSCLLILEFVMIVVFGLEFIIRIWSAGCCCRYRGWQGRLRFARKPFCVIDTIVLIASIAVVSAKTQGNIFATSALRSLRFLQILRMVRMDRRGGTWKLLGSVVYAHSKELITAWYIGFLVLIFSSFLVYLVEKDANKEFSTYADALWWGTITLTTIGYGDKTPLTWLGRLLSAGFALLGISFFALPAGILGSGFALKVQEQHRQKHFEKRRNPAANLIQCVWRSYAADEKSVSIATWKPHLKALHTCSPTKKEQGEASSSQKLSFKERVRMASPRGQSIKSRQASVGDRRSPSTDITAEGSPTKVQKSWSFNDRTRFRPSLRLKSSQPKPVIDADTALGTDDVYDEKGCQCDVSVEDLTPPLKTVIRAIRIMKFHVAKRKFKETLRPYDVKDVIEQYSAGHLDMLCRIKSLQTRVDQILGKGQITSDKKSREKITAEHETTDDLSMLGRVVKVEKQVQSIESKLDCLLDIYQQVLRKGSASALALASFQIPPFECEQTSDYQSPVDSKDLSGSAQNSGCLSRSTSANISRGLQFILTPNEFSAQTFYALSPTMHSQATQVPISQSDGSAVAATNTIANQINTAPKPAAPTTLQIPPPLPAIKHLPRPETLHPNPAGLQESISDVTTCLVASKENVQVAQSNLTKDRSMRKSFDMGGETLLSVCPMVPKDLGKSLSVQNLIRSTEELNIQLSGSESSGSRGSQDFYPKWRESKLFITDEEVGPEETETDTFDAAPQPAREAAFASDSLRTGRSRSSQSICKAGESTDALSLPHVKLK
# Sequence of murine KCNQ2 (mKCNQ2) (Q9Z351 whole entry): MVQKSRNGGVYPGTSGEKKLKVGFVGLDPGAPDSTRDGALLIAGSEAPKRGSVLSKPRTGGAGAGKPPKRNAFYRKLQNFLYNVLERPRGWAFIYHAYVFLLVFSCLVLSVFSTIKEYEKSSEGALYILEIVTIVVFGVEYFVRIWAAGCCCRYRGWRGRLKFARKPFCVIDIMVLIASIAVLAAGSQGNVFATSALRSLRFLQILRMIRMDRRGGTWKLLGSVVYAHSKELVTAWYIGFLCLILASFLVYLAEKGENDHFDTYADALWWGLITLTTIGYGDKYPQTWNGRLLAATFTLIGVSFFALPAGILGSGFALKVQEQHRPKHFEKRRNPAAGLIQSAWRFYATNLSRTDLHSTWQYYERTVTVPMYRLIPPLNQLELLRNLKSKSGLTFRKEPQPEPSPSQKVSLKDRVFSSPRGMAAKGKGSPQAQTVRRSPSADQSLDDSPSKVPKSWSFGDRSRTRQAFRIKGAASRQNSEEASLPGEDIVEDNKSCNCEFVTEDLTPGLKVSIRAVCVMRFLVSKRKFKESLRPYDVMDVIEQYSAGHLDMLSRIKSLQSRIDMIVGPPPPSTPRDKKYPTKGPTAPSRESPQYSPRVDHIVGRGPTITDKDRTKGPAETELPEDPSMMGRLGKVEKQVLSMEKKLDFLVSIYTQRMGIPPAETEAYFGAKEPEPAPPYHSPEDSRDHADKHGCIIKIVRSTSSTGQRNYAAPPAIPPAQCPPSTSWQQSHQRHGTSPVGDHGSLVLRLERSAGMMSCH
structure (smiles),measurement,setting,value
"O=C1Nc2cc(C(F)(F)F)ccc2C1(F)c1cc(Cl)ccc1OCC(F)(F)F (single isomer, unassigned; (+)) [Compound 1]",number of spreading depressions produced by a single 10 min KCl application,[1],significant reduction
same,"human KCNQ5-mediated outward currents, % of control",[2],157.4+/−6.0 % of control
same,increase of KCNQ2 current over the KCNQ2 current in controls,[3],> 150%
same,decrease in trigeminal field potentials from control amplitude,"[4]; rat, 50 mg/kg i.v. (highest dose)",86.7±1.67%
same,effect on SSS-stimulated trigeminal field response,"[4]; rat, doses 0.1, 1.0, 10.0, 30.0 and 50.0 mg/kg i.v., vs vehicle (p<0.01 in all cases; overall ANOVA p<0.001)",dose-dependent reduction; also recorded: significant reduction; also recorded: dose-dependent decrease
"O=C(NCc1ccc(C(F)(F)F)cc1)c1cnc(N2CCCC2)nc1C(F)(F)F [Compound 2, 2-(Pyrrolidin-1-yl)-4-(trifluoromethyl)-N-[[4-(trifluoromethyl)phenyl]methyl]pyrimidine-5-carboxamide]",effect on SSS stimulation evoked trigeminal field potential amplitude,"[4]; urethane anesthetized rats, 1 mg/kg i.v.",statistically significant (p=0.005) decrease
CN1C[C@H](C(=O)N[C@]2(C)O[C@@]3(O)[C@@H]4CCCN4C(=O)[C@H](Cc4ccccc4)N3C2=O)C[C@@H]2c3cccc4[nH]cc(c34)C[C@H]21 [dihydroergotamine],physiological measures of SSS-stimulated trigeminal activity,[5]; literature reports,decrease
CNS(=O)(=O)CCc1ccc2[nH]cc(C3CCN(C)CC3)c2c1 [naratriptan],physiological measures of SSS-stimulated trigeminal activity,[5]; literature reports,decrease
CN(C)CCc1c[nH]c2ccc(Cn3cncn3)cc12 [rizatriptan],physiological measures of SSS-stimulated trigeminal activity,[5]; literature reports,decrease
CNS(=O)(=O)Cc1ccc2[nH]cc(CCN(C)C)c2c1 [sumatriptan],physiological measures of SSS-stimulated trigeminal activity,"[5]; following blood-brain-barrier disruption, literature report",decrease
CN(C)CCc1c[nH]c2ccc(C[C@H]3COC(=O)N3)cc12 [zolmitriptan],physiological measures of SSS-stimulated trigeminal activity,[5]; literature reports,decrease
